Target: T1, protein-protein interaction between SOS1 and KRAS-G12D (Homo sapiens, UniProt Q07889)
T1 construct: The purified GST-SOS1 catalytic domain (residues 564-1049) was first diluted in assay buffer; made in house; host or cells: E. coli BL21 (DE3) for SOS1; E. coli BL21 carrying a BirA plasmid for KRAS-G12D
T1 sequence (Q07889 564-1049): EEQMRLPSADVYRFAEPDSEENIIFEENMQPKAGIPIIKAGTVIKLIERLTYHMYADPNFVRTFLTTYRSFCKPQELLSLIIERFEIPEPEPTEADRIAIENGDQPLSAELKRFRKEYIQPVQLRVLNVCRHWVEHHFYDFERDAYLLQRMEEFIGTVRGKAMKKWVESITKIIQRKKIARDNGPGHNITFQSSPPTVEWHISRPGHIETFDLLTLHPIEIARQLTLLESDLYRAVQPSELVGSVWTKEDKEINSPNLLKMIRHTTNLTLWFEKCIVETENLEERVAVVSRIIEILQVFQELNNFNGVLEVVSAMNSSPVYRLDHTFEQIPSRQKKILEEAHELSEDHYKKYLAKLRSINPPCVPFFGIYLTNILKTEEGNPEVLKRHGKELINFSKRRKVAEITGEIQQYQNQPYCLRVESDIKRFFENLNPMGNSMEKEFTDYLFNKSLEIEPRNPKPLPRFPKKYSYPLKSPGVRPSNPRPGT
Test: HTRF Based Protein-Protein Interaction Assay
Assay type: binding
Conditions: HTRF; GST-SOS1 2.5 nM, KRAS-G12D 100 nM, GDP 10 uM; read-out: IC50 value, inhibition of SOS1/KRAS-G12D protein-protein interaction
Excerpt: A KRAS-G12D and SOS1 binding/interaction assay was designed to measure the interaction between KRAS-G12D and SOS1 proteins. Utilizing HTRF (Homogeneous Time-Resolved Fluorescence) technology, the assay enabled simple and rapid characterization of compound and protein interaction in a high throughput format. This assay was used to examine potency of the compounds in inhibiting the protein-protein interaction between SOS1 and KRAS-G12D. […] Low IC50 values are indicative of high potency of the SOS1 inhibitor compound to disrupt SOS1 and Kras-G12D interaction.
Protein Expression and Purification. The corresponding gene sequence to human SOS1 (residues 564-1049, UniProt ID: Q07889; SEQ ID NO: 2) was synthesized and fused in frame with GST expression vector. After the desired sequence was confirmed, plasmid containing the sequence was transformed into the E. coli strain BL21 (DE3). Bacteria were growing at 37° C. in LB media containing 50 μg/ml Kanamycin to give OD600 of 0.6-0.8. Then 0.2 mM IPTG was added to induce protein expression for 16 hours at 17° C. Bacteria were harvested by centrifugation and stored at −80° C. Bacteria pellets were resuspended in lysis buffer (25 mM Tris-HCl, 500 mM NaCl, 2 mM DTT, 2.3% sucrose, 0.3% dextran-10, 1 mM PMSF, pH 7.5) and lysed using high-pressure homogenizer. The lysate was cleared by centrifugation for 30 minutes (12000 rpm at 4° C.). The supernatant containing GST-SOS1 fragment was purified sequentially through Glutathione column and gel filtration (Hiload 16/600 Superdex […] column, Cytiva). The purified GST-SOS1 fragment was confirmed by SDS-PAGE and stored in 25 mM Tris-HCl, 100 mM NaCl, 1 mM DTT, 2.3% sucrose, 0.3% dextran-10, pH 7.5 at −80° C.
Kras-G12D Protein Purification. The sequence corresponding to human KRAS-G12D (residues 1-169, UniProt P01116-2; SEQ ID NO: 1) was synthesized and fused in frame with His-AVI-TEV vector. The plasmid was transformed into the E. coli strain BL21 (containing a plasmid that can generate BirA enzyme). Bacteria were growing at 37° C. in TB media containing 100 μg/ml ampicillin and 50 μg/ml Kanamycin to give OD600 of 0.6-0.8. The 0.5 mM IPTG and 50 mg/l biotin were added to induce protein expression for 16 hours at 25° C. Bacteria were harvested by centrifugation and stored at −80° C. Bacteria pellets were re-suspended in lysis buffer (20 mM Tris-HCl, 500 mM NaCl, 5 mM MgCl2, 2 mM […], 5% glycerol, pH 8.0) and lysed using high-pressure homogenizer. The lysate was cleared by centrifugation for 30 minutes (12000 rpm at 4° C.). The supernatant containing HIS-AVI-TEV-KRAS-G12D fragment was purified sequentially through Ni-NTA column (SMART), Streptactin column (SMART), and gel filtration (Hiload 16/600 Superdex 75 pg, GE). The purified HIS-AVI-TEV-KRAS-G12D fragment was confirmed by SDS-PAGE and stored in 50 mM HEPES-NaOH, 100 mM NaCl, 1 mM DTT, 5 mM MgCl2, pH 7.5 at −80° C.
Protein-Protein Interaction Assay. An assay buffer containing 50 mM HEPES, pH 7.5, 50 mM NaCl, 0.01% Brij-35, 1 mM TCEP, 0.1% BSA was prepared, and concentration series of test compounds were generated spanning from 0.5 nM to 10 μM over 10 3-fold serial dilutions in a 384-well assay plate at a volume of 20 pL. The purified GST-SOS1 catalytic domain (residues 564-1049) was first diluted in assay buffer and 5 μl of SOS1 (final concentration 2.5 nM in assay mixture) was directly dispensed into compound plates. After a spin down at 1000 RPM for 30 seconds, the SOS1/compound mixture was incubated at 25° C. for 15 minutes to allow the reaction between SOS1 and the compound. A KRAS-G12D mixture was prepared by incubation of avi-tagged Kras-G12D (residue 1-169) and GDP in assay buffer containing 10 mM MgCl2 at room temperature for 10 minutes. A KRAS-G12D and GDP mixture (5 μL) was added to the assay plate (final KRAS-G12D was 100 nM and GDP was 10 uM). The plate was centrifuged at 1000 rpm for 30 sec and incubated at 25° C. for 60 minutes. […]

Compound	IC50
C#C[C@@H](Nc1nc(C)nc2cc(=O)n(C(C)C(F)(F)F)cc12)c1cccc(C(F)(F)F)c1C (mixture of isomers) [Compound 8, 2-methyl-4-(((R)-1-(2-methyl-3-(trifluoromethyl)phenyl)prop-2-yn-1-yl)amino)-6-(1,1,1-trifluoropropan-2-yl)pyrido[4,3-d]pyrimidin-7(6H)-one]	< 100 nM
C#C[C@@H](Nc1nc(C)nc2cc(=O)n(C3(C#N)CC3)cc12)c1cccc(C(F)(F)F)c1C [Compound 6, (R)-1-(2-methyl-4-((1-(2-methyl-3-(trifluoromethyl)phenyl)prop-2-yn-1-yl)amino)-7-oxopyrido[4,3-d]pyrimidin-6(7H)-yl)cyclopropane-1-carbonitrile]	< 100 nM
C#C[C@@H](Nc1nc(C)nc2cc(=O)n(C3(C)CC3)cc12)c1cccc(C(C)(F)F)c1F [Compound 19, (R)-4-((1-(3-(1,1-difluoroethyl)-2-fluorophenyl)prop-2-yn-1-yl)amino)-2-methyl-6-(1-methylcyclopropyl)pyrido[4,3-d]pyrimidin-7(6H)-one]	< 100 nM
C=C[C@@H](Nc1nc(C)nc2cc(=O)n(C3(C)CC3)cc12)c1cccc(C(F)(F)F)c1C [Compound 22, (R)-2-methyl-4-((1-(2-methyl-3-(trifluoromethyl)phenyl)allyl)amino)-6-(1-methylcyclopropyl)pyrido[4,3-d]pyrimidin-7(6H)-one]	< 100 nM
C#C[C@@H](Nc1nc(C)nc2cc(=O)n(C3CCC3)cc12)c1cccc(C(F)(F)F)c1C [Compound 3, (R)-6-cyclobutyl-2-methyl-4-((1-(2-methyl-3-(trifluoromethyl)phenyl)prop-2-yn-1-yl)amino)pyrido[4,3-d]pyrimidin-7(6H)-one]	< 100 nM
C#C[C@@H](Nc1nc(C)nc2cc(=O)n(C3(CF)CC3)cc12)c1cccc(C(F)F)c1F [Compound 32, (R)-4-((1-(3-(difluoromethyl)-2-fluorophenyl)prop-2-yn-1-yl)amino)-6-(1-(fluoromethyl)cyclopropyl)-2-methylpyrido[4,3-d]pyrimidin-7(6H)-one]	< 100 nM
C#C[C@@H](Nc1nc(C)nc2c(Br)c(=O)n(C3(C(F)F)CC3)cc12)c1cccc(C(F)F)c1C [Compound 39, (R)-8-bromo-4-((1-(3-(difluoromethyl)-2-methylphenyl)prop-2-yn-1-yl)amino)-6-(1-(difluoromethyl)cyclopropyl)-2-methylpyrido[4,3-d]pyrimidin-7(6H)-one]	< 100 nM
C#C[C@@H](Nc1nc(C)nc2cc(=O)n(C3CC(F)(F)C3)cc12)c1cccc(C(F)(F)F)c1C [Compound 11, (R)-6-(3,3-difluorocyclobutyl)-2-methyl-4-((1-(2-methyl-3-(trifluoromethyl)phenyl)prop-2-yn-1-yl)amino)pyrido[4,3-d]pyrimidin-7(6H)-one]	< 100 nM

The remaining lines, values ahead:

IC50	Compound
< 100 nM	C#C[C@@H](Nc1nc(C)nc2cc(=O)n(C3CC(F)(F)C3)cc12)c1cccc(C(F)F)c1F [Compound 29, (R)-6-(3,3-difluorocyclobutyl)-4-((1-(3-(difluoromethyl)-2-fluorophenyl)prop-2-yn-1-yl)amino)-2-methylpyrido[4,3-d]pyrimidin-7(6H)-one]
< 100 nM	C#C[C@@H](Nc1nc(C)nc2cc(=O)n([C@H]3C[C@H](F)C3)cc12)c1cccc(C(F)(F)F)c1C [Compound 10, 6-((1S,3S)-3-fluorocyclobutyl)-2-methyl-4-(((R)-1-(2-methyl-3-(trifluoromethyl)phenyl)prop-2-yn-1-yl)amino)pyrido[4,3-d]pyrimidin-7(6H)-one]
< 100 nM	C#C[C@@H](Nc1nc(C)nc2c(F)c(=O)n(C3(C(F)F)CC3)cc12)c1cccc(C(F)F)c1F [Compound 27, (R)-4-((1-(3-(difluoromethyl)-2-fluorophenyl)prop-2-yn-1-yl)amino)-6-(1-(difluoromethyl)cyclopropyl)-8-fluoro-2-methylpyrido[4,3-d]pyrimidin-7(6H)-one]
< 100 nM	C#C[C@@H](Nc1nc(C)nc2cc(=O)n(C34CC(C3)C4)cc12)c1cccc2c1CCC2(F)F [Compound 2, (R)-6-(bicyclo[1,1,1]pentan-1-yl)-4-((1-(1,1-difluoro-2,3-dihydro-1H-inden-4-yl)prop-2-yn-1-yl)amino)-2-methylpyrido[4,3-d]pyrimidin-7(6H)-one]
< 100 nM	C#C[C@@H](Nc1nc(C)nc2cc(=O)n(C3(C#C)CC3)cc12)c1cccc(C(F)(F)F)c1C [Compound 5, (R)-6-(1-ethynylcyclopropyl)-2-methyl-4-((1-(2-methyl-3-(trifluoromethyl)phenyl)prop-2-yn-1-yl)amino)pyrido[4,3-d]pyrimidin-7(6H)-one]
< 100 nM	C#C[C@@H](Nc1nc(C)nc2cc(=O)n(C3(C)CCOC3)cc12)c1cccc(C(F)(F)F)c1C (stereo partly drawn) [Compound 7, 2-methyl-4-(((R)-1-(2-methyl-3-(trifluoromethyl)phenyl)prop-2-yn-1-yl)amino)-6-(3-methyltetrahydrofuran-3-yl)pyrido[4,3-d]pyrimidin-7(6H)-one]

— patent publication US20220324862A1, “PYRIDOPYRIMIDINONE COMPOUNDS” (Acerand Therapeutics (USA) Limited, priority 2021, published 2022)
